Test results reported in ChEMBL document CHEMBL1201861, “Genomics of Drug Sensitity in Cancer screening data, Wellcome Trust Sanger Institute”.

Assays:
Experiment in all cases: cells
Format in all cases: functional, cell-based
Conditions in all cases: Homo sapiens
TE-9 = test system: TE-9;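 further: cell growth inhibition, measured with a cell viability readout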
Description: SANGER: Inhibition of human TE-9 cell growth in a cell viability assay.

JVM-3 = test system: JVM-3;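 further: growth inhibition of human JVM-3 cells, read out with a cell viability assay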
Description: SANGER: Inhibition of human JVM-3 cell growth in a cell viability assay.

L-363 = test system: L-363
Description: SANGER: Inhibition of human L-363 cell growth in a cell viability assay.

HAL-01 = test system: HAL-01;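 further: growth inhibition of human HAL-01 cells, read out with a cell viability assay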
Description: SANGER: Inhibition of human HAL-01 cell growth in a cell viability assay.

GT3TKB = test system: GT3TKB;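 further: growth inhibition of the cell line, read out with a cell viability assay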
Description: SANGER: Inhibition of human GT3TKB cell growth in a cell viability assay.

MFM-223 = test system: MFM-223
Description: SANGER: Inhibition of human MFM-223 cell growth in a cell viability assay.

MOLT-4 = test system: MOLT-4;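 further: growth inhibition of MOLT-4 cells, determined with a cell viability readout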
Description: SANGER: Inhibition of human MOLT-4 cell growth in a cell viability assay.

ES3 = test system: ES3;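 further: growth inhibition of ES3 cells, read out with a cell viability assay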
Description: SANGER: Inhibition of human ES3 cell growth in a cell viability assay.

TE-5 = test system: TE-5;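 further: inhibition of cell growth, read out by a cell viability assay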
Description: SANGER: Inhibition of human TE-5 cell growth in a cell viability assay.

COLO-800 = test system: COLO-800;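 further: growth inhibition of COLO-800 cells, read out with a cell viability assay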
Description: SANGER: Inhibition of human COLO-800 cell growth in a cell viability assay.

COLO-320-HSR = test system: COLO-320-HSR;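 further: growth inhibition of COLO-320-HSR cells, determined with a cell viability assay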
Description: SANGER: Inhibition of human COLO-320-HSR cell growth in a cell viability assay.

L-428 = test system: L-428
Description: SANGER: Inhibition of human L-428 cell growth in a cell viability assay.

NCI-H82 = test system: NCI-H82;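 further: growth inhibition of NCI-H82 cells, measured with a cell viability readout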
Description: SANGER: Inhibition of human NCI-H82 cell growth in a cell viability assay.

ES4 = test system: ES4;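 further: growth inhibition of human ES4 cells, read out by a cell viability assay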
Description: SANGER: Inhibition of human ES4 cell growth in a cell viability assay.

MZ2-MEL = test system: MZ2-MEL;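 further: growth inhibition of MZ2-MEL cells read out with a cell viability assay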
Description: SANGER: Inhibition of human MZ2-MEL cell growth in a cell viability assay.

SK-MEL-1 = test system: SK-MEL-1;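 further: growth inhibition of human SK-MEL-1 cells, read out by a cell viability assay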
Description: SANGER: Inhibition of human SK-MEL-1 cell growth in a cell viability assay.

no-10 = test system: no-10;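 further: growth inhibition of no-10 cells, read out with a cell viability assay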
Description: SANGER: Inhibition of human no-10 cell growth in a cell viability assay.

NCI-H747 = test system: NCI-H747;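 further: growth inhibition of human NCI-H747 cells, read out by a cell viability assay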
Description: SANGER: Inhibition of human NCI-H747 cell growth in a cell viability assay.

HH = test system: HH
Description: SANGER: Inhibition of human HH cell growth in a cell viability assay.

A101D = test system: A101D;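 further: growth inhibition of the cell line, measured with a viability assay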
Description: SANGER: Inhibition of human A101D cell growth in a cell viability assay.

NB10 = test system: NB10;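 further: growth inhibition of NB10 cells, read out by a cell viability assay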
Description: SANGER: Inhibition of human NB10 cell growth in a cell viability assay.

A388 = test system: A388;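 further: growth inhibition of human A388 cells, read out with a cell viability assay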
Description: SANGER: Inhibition of human A388 cell growth in a cell viability assay.

CCRF-CEM = test system: CCRF-CEM;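 further: inhibition of CCRF-CEM cell growth, measured by a cell viability assay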
Description: SANGER: Inhibition of human CCRF-CEM cell growth in a cell viability assay.

HT = test system: HT
Description: SANGER: Inhibition of human HT cell growth in a cell viability assay.

HCC1187 = test system: HCC1187;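 further: growth inhibition of HCC1187 cells, read out with a cell viability assay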
Description: SANGER: Inhibition of human HCC1187 cell growth in a cell viability assay.

MLMA = test system: MLMA;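 further: growth inhibition of MLMA cells (human), determined through a cell viability readout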
Description: SANGER: Inhibition of human MLMA cell growth in a cell viability assay.

DSH1 = test system: DSH1;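 further: growth inhibition of human DSH1 cells, measured with a cell viability readout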
Description: SANGER: Inhibition of human DSH1 cell growth in a cell viability assay.

CGTH-W-1 = test system: CGTH-W-1;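 further: growth inhibition of human CGTH-W-1 cells measured by cell viability assay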
Description: SANGER: Inhibition of human CGTH-W-1 cell growth in a cell viability assay.

ONS-76 = test system: ONS-76;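 further: growth inhibition of human ONS-76 cells, read out with a cell viability assay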
Description: SANGER: Inhibition of human ONS-76 cell growth in a cell viability assay.

SK-N-DZ = test system: SK-N-DZ;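 further: growth inhibition of the cancer cell line, read out through a viability assay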
Description: SANGER: Inhibition of human SK-N-DZ cell growth in a cell viability assay.

KARPAS-45 = test system: KARPAS-45;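 further: inhibition of cell line growth, read out through a viability assay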
Description: SANGER: Inhibition of human KARPAS-45 cell growth in a cell viability assay.

DMS-114 = test system: DMS-114
DJM-1 = test system: DJM-1;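 further: growth inhibition of human DJM-1 cells, read out by a cell viability assay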
Description: SANGER: Inhibition of human DJM-1 cell growth in a cell viability assay.

NCI-H1092 = test system: NCI-H1092;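 further: cell growth inhibition measured with a cell viability assay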
Description: SANGER: Inhibition of human NCI-H1092 cell growth in a cell viability assay.

COLO-824 = test system: COLO-824
Description: SANGER: Inhibition of human COLO-824 cell growth in a cell viability assay.

HD-MY-Z = test system: HD-MY-Z;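 further: growth inhibition of HD-MY-Z cells, read out with a cell viability assay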
Description: SANGER: Inhibition of human HD-MY-Z cell growth in a cell viability assay.

SK-UT-1 = test system: SK-UT-1;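 further: growth inhibition of SK-UT-1 cells, measured by a cell viability assay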
Description: SANGER: Inhibition of human SK-UT-1 cell growth in a cell viability assay.

NOS-1 = test system: NOS-1;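 further: growth inhibition of the human NOS-1 cell line, read out with a cell viability assay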
Description: SANGER: Inhibition of human NOS-1 cell growth in a cell viability assay.

LAMA-84 = test system: LAMA-84;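 further: growth inhibition of LAMA-84 cells, read out with a cell viability assay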
Description: SANGER: Inhibition of human LAMA-84 cell growth in a cell viability assay.

U-266 = test system: U-266
Description: SANGER: Inhibition of human U-266 cell growth in a cell viability assay.

DEL = test system: DEL;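 further: growth inhibition of the human DEL cell line, read out with a cell viability assay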
Description: SANGER: Inhibition of human DEL cell growth in a cell viability assay.

KINGS-1 = test system: KINGS-1;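 further: cell viability assay measuring suppression of KINGS-1 cell growth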
Description: SANGER: Inhibition of human KINGS-1 cell growth in a cell viability assay.

K562 = test system: K562
Description: SANGER: Inhibition of human K-562 cell growth in a cell viability assay.

HEL = test system: HEL;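 further: growth inhibition of HEL cells, read out with a cell viability assay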
Description: SANGER: Inhibition of human HEL cell growth in a cell viability assay.

NCI-H446 = test system: NCI-H446;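 further: growth inhibition of NCI-H446 cells determined by a cell viability assay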
Description: SANGER: Inhibition of human NCI-H446 cell growth in a cell viability assay.

KP-N-YS = test system: KP-N-YS;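 further: cell viability assay measuring inhibition of cell line growth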
Description: SANGER: Inhibition of human KP-N-YS cell growth in a cell viability assay.

TE-6 = test system: TE-6;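 further: growth inhibition of TE-6 cells, read out with a cell viability assay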
Description: SANGER: Inhibition of human TE-6 cell growth in a cell viability assay.

LNCaP-Clone-FGC = test system: LNCaP-Clone-FGC
Description: SANGER: Inhibition of human LNCaP-Clone-FGC cell growth in a cell viability assay.

LB2518-MEL = test system: LB2518-MEL;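 further: growth inhibition of human LB2518-MEL cells, measured with a cell viability assay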
Description: SANGER: Inhibition of human LB2518-MEL cell growth in a cell viability assay.

NCI-H1304 = test system: NCI-H1304;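 further: growth inhibition of the cancer cell line, measured in a cell viability assay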
Description: SANGER: Inhibition of human NCI-H1304 cell growth in a cell viability assay.

NCI-H510A = test system: NCI-H510A;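 further: growth inhibition of NCI-H510A cells, read out with a cell viability assay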
Description: SANGER: Inhibition of human NCI-H510A cell growth in a cell viability assay.

TE-10 = test system: TE-10;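 further: growth inhibition of TE-10 cells, measured by a cell viability assay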
Description: SANGER: Inhibition of human TE-10 cell growth in a cell viability assay.

RCC10RGB = test system: RCC10RGB;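 further: growth inhibition of human RCC10RGB cells, read out by a cell viability assay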
Description: SANGER: Inhibition of human RCC10RGB cell growth in a cell viability assay.

KALS-1 = test system: KALS-1;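 further: growth inhibition of KALS-1 cells, determined with a cell viability assay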
Description: SANGER: Inhibition of human KALS-1 cell growth in a cell viability assay.

SK-NEP-1 = test system: SK-NEP-1;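 further: growth inhibition of human SK-NEP-1 cells, read out by a cell viability assay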
Description: SANGER: Inhibition of human SK-NEP-1 cell growth in a cell viability assay.

UACC-257 = test system: UACC-257
Description: SANGER: Inhibition of human UACC-257 cell growth in a cell viability assay.

OCI-AML2 = test system: OCI-AML2;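 further: growth inhibition of OCI-AML2 cells, read out with a cell viability assay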
Description: SANGER: Inhibition of human OCI-AML2 cell growth in a cell viability assay.

EKVX = test system: EKVX;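 further: growth inhibition of human EKVX cells, read out with a cell viability assay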
Description: SANGER: Inhibition of human EKVX cell growth in a cell viability assay.

OVCAR-4 = test system: OVCAR-4;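 further: growth inhibition of human OVCAR-4 cells, measured with a cell viability assay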
Description: SANGER: Inhibition of human OVCAR-4 cell growth in a cell viability assay.

EW-11 = test system: EW-11
Description: SANGER: Inhibition of human EW-11 cell growth in a cell viability assay.

TGBC1TKB = test system: TGBC1TKB
Description: SANGER: Inhibition of human TGBC1TKB cell growth in a cell viability assay.

NCI-H1299 = test system: NCI-H1299
Description: SANGER: Inhibition of human NCI-H1299 cell growth in a cell viability assay.

EW-13 = test system: EW-13
Description: SANGER: Inhibition of human EW-13 cell growth in a cell viability assay.

BB49-HNC = test system: BB49-HNC
Description: SANGER: Inhibition of human BB49-HNC cell growth in a cell viability assay.

RKO = test system: RKO
Description: SANGER: Inhibition of human RKO cell growth in a cell viability assay.

SW982 = test system: SW982
Description: SANGER: Inhibition of human SW982 cell growth in a cell viability assay.

Cc1ccc(NC(=O)c2cccc(C(C)(C)C#N)c2)cc1Nc1ccc2ncn(C)c(=O)c2c1
IC50 (TE-9): > 4000 nM
IC50 (JVM-3): > 4000 nM
IC50 (L-363): > 4000 nM
IC50 (HAL-01): > 4000 nM
IC50 (GT3TKB): > 4000 nM
IC50 (MFM-223): > 4000 nM
IC50 (MOLT-4): > 4000 nM
IC50 (ES3): > 4000 nM
IC50 (TE-5): > 4000 nM
IC50 (COLO-800): > 4000 nM
IC50 (COLO-320-HSR): > 4000 nM
IC50 (L-428): > 4000 nM
IC50 (NCI-H82): > 4000 nM
IC50 (ES4): > 4000 nM
IC50 (MZ2-MEL): 794 nM
IC50 (SK-MEL-1): 384 nM
IC50 (no-10): > 4000 nM
IC50 (NCI-H747): 506 nM
IC50 (HH): > 4000 nM
IC50 (A101D): 5.82 nM
IC50 (NB10): > 4000 nM
IC50 (A388): > 4000 nM
IC50 (CCRF-CEM): > 4000 nM
IC50 (HT): > 4000 nM
IC50 (HCC1187): > 4000 nM
IC50 (MLMA): > 4000 nM
IC50 (DSH1): > 4000 nM
IC50 (CGTH-W-1): 121 nM
IC50 (ONS-76): 167 nM
IC50 (SK-N-DZ): > 4000 nM
IC50 (KARPAS-45): > 4000 nM
IC50 (DMS-114): > 4000 nM
IC50 (DJM-1): > 4000 nM
IC50 (NCI-H1092): > 4000 nM
IC50 (COLO-824): > 4000 nM
IC50 (HD-MY-Z): 2940 nM
IC50 (SK-UT-1): > 4000 nM
IC50 (NOS-1): 92.7 nM
IC50 (LAMA-84): 192 nM
IC50 (U-266): > 4000 nM
IC50 (DEL): > 4000 nM
IC50 (KINGS-1): > 4000 nM
IC50 (K562): 667 nM
IC50 (HEL): > 4000 nM
IC50 (NCI-H446): > 4000 nM
IC50 (KP-N-YS): > 4000 nM
IC50 (TE-6): > 4000 nM
IC50 (LNCaP-Clone-FGC): > 4000 nM
IC50 (LB2518-MEL): 4.76 nM
IC50 (NCI-H1304): > 4000 nM
IC50 (NCI-H510A): > 4000 nM
IC50 (TE-10): > 4000 nM
IC50 (RCC10RGB): > 4000 nM
IC50 (KALS-1): > 4000 nM
IC50 (SK-NEP-1): 472 nM
IC50 (UACC-257): 27.5 nM
IC50 (OCI-AML2): 17 nM
IC50 (EKVX): > 4000 nM
IC50 (OVCAR-4): > 4000 nM
IC50 (EW-11): > 4000 nM
IC50 (TGBC1TKB): > 4000 nM
IC50 (NCI-H1299): > 4000 nM
IC50 (EW-13): > 4000 nM
IC50 (BB49-HNC): 352 nM
IC50 (RKO): 37.7 nM

CC[C@@]1(O)C(=O)OCc2c1cc1n(c2=O)Cc2cc3ccccc3nc2-1 [CAMPTOTHECIN]
IC50 (TE-9): 23.7 nM
IC50 (JVM-3): 2.5 nM
IC50 (L-363): 1.87 nM
IC50 (HAL-01): 2.55 nM
IC50 (GT3TKB): 1.76 nM
IC50 (MFM-223): > 100 nM
IC50 (MOLT-4): 1.62 nM
IC50 (ES3): 0.931 nM
IC50 (TE-5): 7.38 nM
IC50 (COLO-800): 0.428 nM
IC50 (COLO-320-HSR): 62.1 nM
IC50 (NCI-H82): > 100 nM
IC50 (ES4): 1.47 nM
IC50 (MZ2-MEL): 14.1 nM
IC50 (SK-MEL-1): 51.3 nM
IC50 (HH): 13.5 nM
IC50 (NB10): 0.614 nM
IC50 (A388): 10.1 nM
IC50 (CCRF-CEM): 5.55 nM
IC50 (HT): 29.7 nM
IC50 (MLMA): 8.14 nM
IC50 (SW982): 4.06 nM
IC50 (DSH1): 15.8 nM
IC50 (CGTH-W-1): 3.27 nM
IC50 (ONS-76): 2.41 nM
IC50 (SK-N-DZ): 21.7 nM
IC50 (DMS-114): 81.1 nM
IC50 (NCI-H1092): 43.2 nM
IC50 (HD-MY-Z): 1.63 nM
IC50 (SK-UT-1): 3.07 nM
IC50 (NOS-1): 91.9 nM
IC50 (LAMA-84): 7.02 nM
IC50 (U-266): 69.5 nM
IC50 (DEL): 0.816 nM
IC50 (K562): > 100 nM
IC50 (HEL): 6.31 nM
IC50 (NCI-H446): 56.6 nM
IC50 (KP-N-YS): > 100 nM
IC50 (LNCaP-Clone-FGC): 31 nM
IC50 (LB2518-MEL): 87.3 nM
IC50 (NCI-H1304): 59.3 nM
IC50 (NCI-H510A): 1.7 nM
IC50 (KALS-1): 69.9 nM
IC50 (SK-NEP-1): 1.23 nM
IC50 (OCI-AML2): 0.887 nM
IC50 (EW-11): 2.66 nM
IC50 (NCI-H1299): 9.43 nM
IC50 (EW-13): 3.27 nM
IC50 (RKO): 4.23 nM
